Earlier results as cited in US12268209B2, “Liquid sulfonylurea-containing herbicidal compositions” (Mitsui AgriScience International S.A./N.V., priority 2014, dated 2025).

Experiments:
[1] = after 5 days, depending on the selected solvent; 52° C.
[2] = after one week of storage at 40° C.; compositions of WO 2007/027863 A2

SMILES | metsulfuron methyl lost [1] | tribenuron-methyl lost [2]
COC(=O)c1ccccc1S(=O)(=O)NC(=O)Nc1nc(C)nc(OC)n1 [metsulfuron-methyl, methyl 2-[[[[(4-methoxy-6-methyl-1,3,5-triazin-2-yl)amino]carbonyl]amino]sulfonyl]benzoate] | 25-30% | 
COC(=O)c1ccccc1S(=O)(=O)NC(=O)N(C)c1nc(C)nc(OC)n1 [tribenuron-methyl, methyl 2-[[[[N-(4-methoxy-6-methyl-1,3,5-triazin-2-yl)-N-methylamino]carbonyl]amino]-sulfonyl]benzoate] |  | up to 66.5%
